The values that follow come from patent US7919077B2, “Pharmaceutical compositions comprising CCL2 and use of same for the treatment of inflammation” (Yeda Research and Development Co. Ltd., priority 2006, dated 2011).

The nature of one experiment: TNBS colitis mouse model. In kind it is in vivo, mice. The conditions noted are these: dexamethasone i.p. daily. How it is done: TNBS colitis model and treatment with CCL2—TNBS colitis was induced as previously described [Ohkawara et al. (2002) Gastroenterology, 123:256]. Briefly, mice were anesthetized by i.p. injection (35 μl per mouse) of a mixture containing 85% ketamine and 15% xylazine (20 mg/ml). Next, 100 μl of TNBS [55% volume of 50% ethanol mixed with 45% volume of TNBS solution ([…]; Sigma-Aldrich)] was infused into the colonic lumen (about 3.5 cm of the anal verge) via 1 ml syringe attached to a feeding needle. Treated mice were weighted daily and visually inspected for clinical symptoms, such as rectal bleeding and diarrhea.
TNBS mice were divided into 6 groups. CCL2 groups (10 mice in each group) were injected i.p. daily with different CCL2 concentrations (30 ng, 60 ng or 180 ng) in 200 μl of PBS from day 0 (immediately after TNBS induction) to day 6. Control groups (10 mice in each group) were injected i.p. daily with 200 μl PBS alone. Additionally, 5 mice were injected i.p. daily with dexamethasone; and 1 mouse which was not treated and served as negative control for future histology and weight.
Macroscopic and histological assessment of colitis—An observer blind to the experimental procedure scored colitis for clinical manifestation of disease. The colon was macroscopically examined (×5 magnification) to evaluate the macroscopic lesions according to the Wallace criteria. The Wallace score ranks macroscopic colon lesions on a scale from 0 to 16 based on criteria reflecting inflammation, such as hyperemia, thickening of the bowel and the extent of ulceration. The colon was cut lengthwise and fixed in 4% paraformaldehyde for future histology.

In the next experiment the test system is naïve T cells. As to the kind of experiment: Cytoskeleton rearrangement (actin polymerization), naïve T cells. In kind it is cell-based, mice. Particulars: CCL21 stimulation in presence of chemokine 0.1 ng/ml; FIG. 2e. On the procedure: Cytoskeleton rearrangement—T cells were pre-incubated for 30 minutes in the presence or absence of CCL2 (0.1 ng/ml), and then stimulated with either CXCL12 (0.1 mg/ml PeproTech, Inc., Rocky Hill N.J.), SLC (CCL21, 0.4 mg/ml, PeproTech, Inc., Rocky Hill, N.J.), Rantes (0.1 mg/ml, R&D systems Minneapolis, Minn.), MIP-1β(0.1 mg/ml, R&D systems Minneapolis, Minn.) or Eotoxin (0.1 mg/ml R&D systems Minneapolis, Minn.) for 15 seconds. Cells were then immediately fixed with paraformaldehyde, permeabilized and their intracellular F-actin was stained with FITC-phalloidin (Sigma-Aldrich, St. Louis, Mo.), and then analyzed by flow cytometry to determine the state of their cytoskeleton, as previously described [Flaishon, L. F., et al., J. Biol. Chem. 276:46701 (2001)].

The test system of experiment [1] is human T cells interacting with VCAM-1 (VLA-4). Put plainly: Laminar flow adhesion assay on VCAM-1 with co-immobilized CCL21. It is filed as cell-based. Particulars: low dose chemokine pretreatment. On the procedure: (§1) Laminar flow adhesion assays—Purified VCAM-1 or ICAM-1-Fc (both from R&D Systems, Minneapolis, Minn.) were coated with or without CCL21 (R&D Systems) on polystyrene plates as previously described [Grabovsky et al., J Exp Med. (2000) 192:495-506; Sigal et al., J Immunol. (2000) 165:442-452]. The polystyrene plates were each assembled on the lower wall of the flow chamber as previously described [Feigelson et al., J Biol Chem. (2001) 276:13891-13901]. All flow experiments were conducted at 37° C. Cells were washed with cation-free H/H medium, resuspended in binding medium (H/H medium supplemented with 1 mM CaCl2 and 1 mM MgCl2) and perfused through the flow chamber at low shear stress (0.5-0.75 dyn/cm^2) for 2 minutes. Tethers were defined as transient or rolling if cells attached briefly (<2 seconds) to the substrate and as arrests if immediately arrested and remaining stationary for at least 5 seconds of continuous flow. Frequencies of adhesive categories within differently pretreated cells were determined as a percentage of cells flowing immediately over the substrates, as previously described [Grabovsky et al., supra]. To assess resistance to detachment over time, accumulated cells were subjected to a shear stress of 5 dyn/cm^2 for 5 minutes. At the indicated time points, the number of cells that remained bound was expressed relative to T cell population originally accumulated in the first 2 minute period of the assay. Over 90% of cellular tethers to VCAM-1 or ICAM-1 were blocked by pretreating cells with VLA-4 or LFA-1 blockers respectively.

In experiment [2] the test system is human T cells interacting with ICAM-1 (LFA-1). As to the kind of experiment: Laminar flow adhesion assay on ICAM-1 with co-immobilized CCL21. Particulars: low dose chemokine pretreatment. It is filed as cell-based. How it is done:
as §1

With `C[C@@H]1C[C@H]2[C@@H]3CCC4=CC(=O)C=C[C@]4(C)[C@@]3(F)[C@@H](O)C[C@]2(C)[C@@]1(O)C(=O)CO` [dexamethasone, reference compound], the “Colon length (cm)” value in “TNBS colitis mouse model” is listed as 8.17 ± 0.76 cm. Also, the “Diarrhea (# of mice)” value in the experiment “TNBS colitis mouse model” (3 mice) is 0 # of mice. In the experiment “TNBS colitis mouse model” (Wallace score 0 to 16, mean±SEM), this molecule gave a Colitis score of 0.67 ± 0.58.
“CXCL12: chemokine, chemoattractant for T cells; tested at low dose as comparator [reference compound]”: the “inhibitory effect of low levels of chemokine on actin polymerization of naïve T cells” value (from here on “inhibitory effect”) with naïve T cells is “no inhibitory effect”. Moreover, the “post arrest adhesion strengthening on VCAM-1 (resistance to detachment)” value in experiment [1] (high shear stress 5 dyn/cm^2, FIG. 6d) is listed as “retained”. For the same molecule, the “VLA-4 activation by surface bound CCL21 (arrest on VCAM-1)” value in experiment [1] (shear stress 0.75 dyn/cm^2, FIG. 6c) was “retained”. Besides, in experiment [2] (high shear stress 5 dyn/cm^2, FIG. 6b), the “post arrest adhesion strengthening on ICAM-1 (resistance to detachment)” value was “retained”. Further, the “LFA-1 activation by surface bound CCL21 (arrest on ICAM-1)” value in experiment [2] (shear stress 0.5 dyn/cm^2, FIG. 6a) is given as “retained”.
In the case of “Eotoxin: comparator chemokine (R&D systems) [reference compound]”, the “inhibitory effect” value with naïve T cells is reported as “no inhibitory effect”.

B1: Mip1β: comparator chemokine (R&D systems) (protein, UniProt P13236 24-92, looked up)
C-C motif chemokine 4: APMGSDPPTACCFSYTARKLPRNFVVDYYETSSLCSQPAVVFQTKRSKQVCADPSESWVQEYVYDLELN
With B1, the “inhibitory effect” value in the experiment on naïve T cells was “no inhibitory effect”.

B2: Rantes: comparator chemokine (R&D systems) (protein, UniProt P13501 24-91, looked up)
C-C motif chemokine 5: SPYSSDTTPCCFAYIARPLPRAHIKEYFYTSGKCSNPAVVFVTRKNRQVCANPEKKWVREYINSLEMS
As to B2, the “inhibitory effect” value with naïve T cells is listed as “no inhibitory effect”.
